Source: US20230265151A1, “GIP/GLP1 CO-AGONIST COMPOUNDS” (priority 2020, published 2023)
Like-named read-outs stand apart in the source and are kept apart here. *1 amine or outer side, *2 acyl side, *3 side chain or, on linkers, in order; H or OH if unused. Where a SMILES comes first, the peptide text is derived from it. Side-chain parts run from the residue outwards. [ ]: non-standard residue; d: D form. The star is where a group is joined. αMePhe(2-F) = C[C@](N)(Cc1ccccc1F)C(=O)O; γGlu = O=C(O)[C@H](CCC(=O)[*:2])N[*:1]; C14 diacid = O=C(O)CCCCCCCCCCCCC(=O)*; αMeY = C[C@](N)(Cc1ccc(O)cc1)C(=O)O; αMeL = CC(C)C[C@](C)(N)C(=O)O; Orn = NCCC[C@H](N)C(=O)O; AEEA = NCCOCCOCC(=O)O; Aib = CC(C)(N)C(=O)O

Legend:
Type in all cases: cell-based
hGIPR = molecular target: T1, hGIPR (Homo sapiens, UniProt P48546); test: Functional cAMP formation (HTRF) in HEK-293 clonal cells expressing hGIPR, 0.1% bovine casein, without or with 1.0% human serum albumin; details: for Emax: percent of maximal response to GIP(1-42)NH2; for EC50: cAMP, incubated at 37° C., 0.1% bovine casein (no human serum albumin), geometric mean
T1 construct: expressed in transfected cells
T1 sequence (P48546 22-466): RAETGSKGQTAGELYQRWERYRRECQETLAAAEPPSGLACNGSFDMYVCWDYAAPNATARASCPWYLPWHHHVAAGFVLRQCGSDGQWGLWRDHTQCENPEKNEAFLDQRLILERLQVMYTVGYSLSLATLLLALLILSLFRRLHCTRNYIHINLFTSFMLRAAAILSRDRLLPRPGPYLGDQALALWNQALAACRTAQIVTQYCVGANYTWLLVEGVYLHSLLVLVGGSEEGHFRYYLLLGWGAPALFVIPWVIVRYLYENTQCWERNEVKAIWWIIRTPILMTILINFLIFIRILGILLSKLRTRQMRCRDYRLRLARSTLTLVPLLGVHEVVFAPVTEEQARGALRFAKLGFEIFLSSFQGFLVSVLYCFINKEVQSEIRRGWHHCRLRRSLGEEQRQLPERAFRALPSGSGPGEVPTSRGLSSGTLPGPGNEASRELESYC
In short: (§1)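 Cells were stimulated with peptide for 30 min at 37° C, then lysed in buffer carrying cAMP-d2 and anti-cAMP Eu3+-cryptate for a competitive HTRF read after at least 60 min at room temperature. The 665/620 nm ratio was converted to nM cAMP against a standard curve.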

hGLP-1R = hGLP-1R (Homo sapiens, UniProt P43220); test: Functional cAMP formation (HTRF) in HEK-293 clonal cells expressing hGLP-1R, 0.1% bovine casein, without or with 1.0% human serum albumin; design: expressed in transfected cells; details: for Emax: percent of maximal response to GLP-1(7-36)NH2; for EC50: cAMP, incubated at 37° C., 0.1% bovine casein (no human serum albumin), geometric mean
In short: as §1

hGCGR = molecular target: T2, hGCGR (Homo sapiens, UniProt P47871); test: Functional cAMP formation (HTRF) in HEK-293 clonal cells expressing hGCGR, 0.1% bovine casein, without or with 1.0% human serum albumin; details: geometric mean
T2 construct: expressed in transfected cells
In short: as §1

hGLP-1R, sequence (P43220 24-463): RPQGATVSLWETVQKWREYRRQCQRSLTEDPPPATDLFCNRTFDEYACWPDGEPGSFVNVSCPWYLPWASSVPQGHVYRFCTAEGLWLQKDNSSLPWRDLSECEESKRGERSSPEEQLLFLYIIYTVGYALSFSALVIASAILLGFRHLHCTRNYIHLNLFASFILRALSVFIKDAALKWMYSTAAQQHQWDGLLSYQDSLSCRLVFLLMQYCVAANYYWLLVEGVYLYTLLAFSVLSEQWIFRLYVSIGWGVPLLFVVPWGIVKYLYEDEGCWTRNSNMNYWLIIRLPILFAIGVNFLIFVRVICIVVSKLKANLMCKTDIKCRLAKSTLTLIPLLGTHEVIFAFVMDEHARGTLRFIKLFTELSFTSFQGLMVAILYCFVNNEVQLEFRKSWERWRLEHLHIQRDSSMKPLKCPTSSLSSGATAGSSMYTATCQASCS
T2 sequence (P47871 26-477): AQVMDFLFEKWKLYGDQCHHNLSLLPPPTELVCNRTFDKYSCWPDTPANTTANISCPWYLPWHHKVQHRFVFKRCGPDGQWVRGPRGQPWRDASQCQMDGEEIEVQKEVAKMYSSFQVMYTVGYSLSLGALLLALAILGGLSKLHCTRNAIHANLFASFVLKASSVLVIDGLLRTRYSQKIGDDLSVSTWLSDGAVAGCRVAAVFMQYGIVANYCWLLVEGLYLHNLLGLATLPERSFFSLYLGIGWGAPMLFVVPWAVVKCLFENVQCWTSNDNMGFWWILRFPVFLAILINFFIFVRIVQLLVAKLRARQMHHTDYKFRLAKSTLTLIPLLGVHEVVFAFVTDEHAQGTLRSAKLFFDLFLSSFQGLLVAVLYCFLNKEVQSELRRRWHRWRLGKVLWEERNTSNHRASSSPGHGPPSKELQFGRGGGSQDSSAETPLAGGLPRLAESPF

Row | Compound | Emax (hGIPR; HEK293, read-out: hGIPR Emax, % ± SEM, 0.1% bovine casein and 1.0% human serum albumin, 37° C.) | EC50 (hGIPR; hGIPR EC50, nM (SEM, n)) | Emax (hGLP-1R; HEK293, read-out: hGLP-1R Emax, % ± SEM, 0.1% bovine casein and 1.0% human serum albumin, 37° C.) | EC50 (hGLP-1R; hGLP-1R EC50, nM (SEM, n)) | EC50 (hGCGR; hGCGR EC50, nM (SEM, n), 0.1% bovine casein and 1.0% human serum albumin, 37° C.) | EC50 (hGCGR; hGCGR EC50, nM (SEM, n), cAMP, incubated at 37° C., 0.1% bovine casein (no human serum albumin)) | Emax (hGIPR; HEK293, 0.1% bovine casein and 1.0% human serum albumin, 37° C., read-out: hGIPR Emax, % ± SEM) | EC50 (hGIPR; read-out: hGIPR EC50, nM (SEM, n)) | Emax (hGLP-1R; HEK293, 0.1% bovine casein and 1.0% human serum albumin, 37° C., read-out: hGLP-1R Emax, % ± SEM) | EC50 (hGLP-1R; read-out: hGLP-1R EC50, nM (SEM, n)) | EC50 (hGCGR; 0.1% bovine casein and 1.0% human serum albumin, 37° C., read-out: hGCGR EC50, nM (SEM, n)) | EC50 (hGCGR; cAMP, incubated at 37° C., 0.1% bovine casein (no human serum albumin), read-out: hGCGR EC50, nM (SEM, n))
1 | CC[C@H](C)[C@H](NC(=O)[C@H](CCCN)NC(=O)[C@H](CC(=O)O)NC(=O)[C@H](CC(C)C)NC(=O)[C@](C)(CC(C)C)NC(=O)[C@@H](NC(=O)C(C)(C)NC(=O)[C@H](Cc1ccc(O)cc1)NC(=O)[C@H](CC(=O)O)NC(=O)[C@H](CO)NC(=O)[C@@H](NC(=O)[C@](C)(Cc1ccccc1F)NC(=O)[C@@H](NC(=O)CNC(=O)[C@H](CCC(=O)O)NC(=O)C(C)(C)NC(=O)[C@@H](N)Cc1ccc(O)cc1)[C@@H](C)O)[C@@H](C)O)[C@@H](C)CC)C(=O)N[C@@H](C)C(=O)N[C@@H](CCC(N)=O)C(=O)NC(C)(C)C(=O)N[C@@H](CCC(=O)O)C(=O)N[C@@H](Cc1ccccc1)C(=O)N[C@H](C(=O)N[C@@H](CCCCNC(=O)COCCOCCNC(=O)COCCOCCNC(=O)CC[C@H](NC(=O)CCCCCCCCCOc1ccc(C(=O)O)cc1)C(=O)O)C(=O)N[C@@](C)(Cc1ccc(O)cc1)C(=O)N[C@@H](CC(C)C)C(=O)N[C@H](C(=O)N[C@@H](CCCCNC(=O)COCCOCCNC(=O)COCCOCCNC(=O)CC[C@H](NC(=O)CCCCCCCCCOc1ccc(C(=O)O)cc1)C(=O)O)C(=O)NCC(=O)NCC(=O)N1CCC[C@H]1C(=O)N[C@@H](CO)C(=O)N[C@@H](CO)C(=O)NCC(=O)N[C@@H](C)C(=O)N1CCC[C@H]1C(=O)N1CCC[C@H]1C(=O)N1CCC[C@H]1C(=O)N[C@@H](CO)C(N)=O)[C@@H](C)CC)[C@@H](C)CC [Example 239] | 89.1% | 0.0328 nM | 109% | 0.546 nM | > 9950 nM | > 9950 nM | – | – | – | – | – | –
2 | CC[C@H](C)[C@H](NC(=O)[C@H](CCCN)NC(=O)[C@H](CC(=O)O)NC(=O)[C@H](CC(C)C)NC(=O)[C@](C)(CC(C)C)NC(=O)[C@@H](NC(=O)C(C)(C)NC(=O)[C@H](Cc1ccc(O)cc1)NC(=O)[C@H](CC(=O)O)NC(=O)[C@H](CO)NC(=O)[C@@H](NC(=O)[C@](C)(Cc1ccccc1F)NC(=O)[C@@H](NC(=O)CNC(=O)[C@H](CCC(=O)O)NC(=O)C(C)(C)NC(=O)[C@@H](N)Cc1ccc(O)cc1)[C@@H](C)O)[C@@H](C)O)[C@@H](C)CC)C(=O)N[C@@H](C)C(=O)N[C@@H](CCC(N)=O)C(=O)NC(C)(C)C(=O)N[C@@H](CCCCNC(=O)COCCOCCNC(=O)COCCOCCNC(=O)CC[C@H](NC(=O)CCCCCCCCCCCCC(=O)O)C(=O)O)C(=O)N[C@@H](Cc1ccccc1)C(=O)N[C@H](C(=O)N[C@H](CCC(=O)O)C(=O)N[C@@](C)(Cc1ccc(O)cc1)C(=O)N[C@@H](CC(C)C)C(=O)N[C@H](C(=O)N[C@@H](CCC(=O)O)C(=O)NCC(=O)NCC(=O)N1CCC[C@H]1C(=O)N[C@@H](CO)C(=O)N[C@@H](CO)C(=O)NCC(=O)N[C@@H](C)C(=O)N1CCC[C@H]1C(=O)N1CCC[C@H]1C(=O)N1CCC[C@H]1C(=O)N[C@@H](CO)C(=O)N[C@@H](CCCCNC(=O)COCCOCCNC(=O)COCCOCCNC(=O)CC[C@H](NC(=O)CCCCCCCCCCCCC(=O)O)C(=O)O)C(N)=O)[C@@H](C)CC)[C@@H](C)CC [Example 235] (H-Y[Aib]EGT[αMePhe(2-F)]TSDY[Aib]I[αMeL]LD[Orn]IAQ[Aib]K([AEEA-AEEA-γGlu-C14 diacid])FI[dE][αMeY]LIEGGPSSGAPPPSK([AEEA-AEEA-γGlu-C14 diacid])-NH2; N-terminus assumed) | – | – | – | – | – | – | 92.2% | 0.0168 nM | 152% | 0.295 nM | > 9950 nM | > 9950 nM
